Laboratory results as given in US8440613B2, “Controlling diseases caused by trichomonadida” (Bayer Intellectual Property GmbH, priority 2008, dated 2013).

Assays:
Heterakis spumosa [1] = assay: Anthelmintic activity against Heterakis spumosa in mice; format: in vivo; details: Heterakis spumosa (mouse); treated on four consecutive days 35 days post-infection; worms counted day 7 after treatment
Method: Male mice (strain Bor CFW, body weight between 25 and 30 g) are kept in Makrolon cages (3 animals/cage) and fed ad lib with water and SNIFF rat food (10 mm pellets). Mice are infected with Heterakis spumosa by oral administration of 90 embryonated eggs. The eggs had been obtained from female worms which had been isolated from the mices colon 40 days post-infection. The eggs were incubated for a further 3 weeks at 37° C. 35 days post-infection, the mice were treated with the respective dose of PF1022A or emodepside on four consecutive days. PF1022A is suspended in Cremophor EL. On day 7 after the treatment, the mice are sacrificed, the ileum/caecum/colon region is removed, and the worms are counted with the naked eye. The ratio of the number of expelled worms in percent of the total number of worms in untreated, infected control animals is defined as the measure for the anthelmintic activity.

Heterakis spumosa [2] = details: murine nematode Heterakis spumosa; oral dose; refs (13, 15); cited from earlier work
Ascaridia galli = details: cited from earlier work
histomonad field strain = assay: Cage experiments; histomonad activity in turkeys; format: in vivo; details: day -4 to +14; for Average lesions in the appendix / Infection-related lesions in the liver: score 0=no lesions, 4=severe lesions
Method: Histomonad-free male turkeys aged 10 days received nifurtimox or the comparative compound nitarson in the concentration given in “ppm” together with the feed from day −4 (=4 days prior to infection) to day 14. Infection is carried out on day 0, 10 animals are kept per group cage. 1 to 3 such groups are employed per dose.
The infection is carried out with a histomonad field strain which is passaged in the laboratory and stored in liquid nitrogen. On day 0, in each case 5 animals of a cage (with the exception of the noninfected control) are infected intracloacally with 250 000 histomonads in each case 1 ml of Dwyer's medium (=direct infection). After a few days, these infected animals excrete fresh histomonads and thus transmit the pathogen to the remaining 5 animals of the cage (=indirect infection).
To assess the activity, the criteria of McDougald and Hu 2001 (7) are taken into consideration: • the infection-caused mortality • the weight gain from the beginning to the end of the experiment • feed consumption • feed conversion • macroscopic assessment of the infection-related lesions in the appendices (caecum) and in the liver. In this assessment, score 0=no lesions and score 4=severe lesions.

[3] = direct infection no, nifurtimox 30 ppm in feed, study of Table 1
[4] = direct infection no, nifurtimox 60 ppm in feed, study of Table 1
[5] = direct infection no, nifurtimox 100 ppm in feed, study of Table 2
[6] = direct infection no, nifurtimox 120 ppm in feed, study of Table 1
[7] = direct infection no, nifurtimox 200 ppm in feed, study of Table 1
[8] = direct infection no, nifurtimox 200 ppm in feed, study of Table 2
[9] = direct infection no, nifurtimox 300 ppm in feed, study of Table 2
[10] = direct infection no, nifurtimox 400 ppm in feed, study of Table 2
[11] = direct infection yes, nifurtimox 30 ppm in feed, study of Table 1
[12] = direct infection yes, nifurtimox 60 ppm in feed, study of Table 1
[13] = direct infection yes, nifurtimox 100 ppm in feed, study of Table 2
[14] = direct infection yes, nifurtimox 120 ppm in feed, study of Table 1
[15] = direct infection yes, nifurtimox 200 ppm in feed, study of Table 1
[16] = direct infection yes, nifurtimox 200 ppm in feed, study of Table 2
[17] = direct infection yes, nifurtimox 300 ppm in feed, study of Table 2
[18] = direct infection yes, nifurtimox 400 ppm in feed, study of Table 2
[19] = nifurtimox 30 ppm in feed, study of Table 1
[20] = nifurtimox 60 ppm in feed, study of Table 1
[21] = nifurtimox 100 ppm in feed, study of Table 2
[22] = nifurtimox 120 ppm in feed, study of Table 1
[23] = nifurtimox 200 ppm in feed, study of Table 1
[24] = nifurtimox 200 ppm in feed, study of Table 2
[25] = nifurtimox 300 ppm in feed, study of Table 2
[26] = nifurtimox 400 ppm in feed, study of Table 2

CC(C)CC1C(=O)OC(Cc2ccc(N3CCOCC3)cc2)C(=O)N(C)C(CC(C)C)C(=O)OC(C)C(=O)N(C)C(CC(C)C)C(=O)OC(Cc2ccc(N3CCOCC3)cc2)C(=O)N(C)C(CC(C)C)C(=O)OC(C)C(=O)N1C [Emodepside, cyclo[(R)-lactoyl-N-methyl-L-leucyl-(R)-3-(p-morpholinophenyl)lactoyl-N-methyl-L-leucyl-(R)-lactoyl-N-methyl-L-leucyl-(R)-3-(p-morpholinophenyl)lactoyl-N-methyl-L-leucyl]]
Dose with full activity (Heterakis spumosa [1]): 1 to 10 mg/kg | Dose at which active against Heterakis spumosa (Heterakis spumosa [2]): 1 to 10 mg/kg

CC(C)CC1C(=O)OC(Cc2ccccc2)C(=O)N(C)C(CC(C)C)C(=O)OC(C)C(=O)N(C)C(CC(C)C)C(=O)OC(Cc2ccccc2)C(=O)N(C)C(CC(C)C)C(=O)OC(C)C(=O)N1C (stereo not drawn) [PF1022A]
Dose with full activity (Heterakis spumosa [1]): 50 mg/kg | Dose with full activity (Ascaridia galli; Ascaridia galli (chicken)): 2 mg/kg | Dose at which the compound acts against Ascaridia galli (Ascaridia galli; Ascaridia galli in chickens, ref (16)): 2 mg/kg | Dose at which active against Heterakis spumosa (Heterakis spumosa [2]): 50 mg/kg

CC1CS(=O)(=O)CCN1N=Cc1ccc([N+](=O)[O-])o1 (stereo not drawn) [nifurtimox]
Mean weight gain (g) between day 0 and the time of death (histomonad field strain; [3]): 730 g | Mean weight gain (g) between day 0 and the time of death (histomonad field strain; [4]): 838 g | Mean weight gain (g) between day 0 and the time of death (histomonad field strain; [5]): 581 g | Mean weight gain (g) between day 0 and the time of death (histomonad field strain; [6]): 744 g | Mean weight gain (g) between day 0 and the time of death (histomonad field strain; [7]): 744 g | Mean weight gain (g) between day 0 and the time of death (histomonad field strain; [8]): 525 g | Mean weight gain (g) between day 0 and the time of death (histomonad field strain; [9]): 750 g | Mean weight gain (g) between day 0 and the time of death (histomonad field strain; [10]): 832 g | Mean weight gain (g) between day 0 and the time of death (histomonad field strain; [11]): 235 g | Mean weight gain (g) between day 0 and the time of death (histomonad field strain; [12]): 304 g | Mean weight gain (g) between day 0 and the time of death (histomonad field strain; [13]): 135 g | Mean weight gain (g) between day 0 and the time of death (histomonad field strain; [14]): 182 g | Mean weight gain (g) between day 0 and the time of death (histomonad field strain; [15]): 264 g | Mean weight gain (g) between day 0 and the time of death (histomonad field strain; [16]): 270 g | Mean weight gain (g) between day 0 and the time of death (histomonad field strain; [17]): 450 g | Mean weight gain (g) between day 0 and the time of death (histomonad field strain; [18]): 691 g | Mean feed consumption between day 0 and day 14 (histomonad field strain; [19]): 9.00 kg | Mean feed conversion between day 0 and day 14 (histomonad field strain; [19]): 1.88 | Mortality caused by histomoniasis (histomonad field strain; [19]): 5 | Mean feed consumption between day 0 and day 14 (histomonad field strain; [20]): 9.68 kg | Mean feed conversion between day 0 and day 14 (histomonad field strain; [20]): 1.70 | Mortality caused by histomoniasis (histomonad field strain; [20]): 6 | Mean feed consumption between day 0 and day 14 (histomonad field strain; [21]): 6.69 kg | Mean feed conversion between day 0 and day 14 (histomonad field strain; [21]): 2.32 | Mortality caused by histomoniasis (histomonad field strain; [21]): 13 | Mean feed consumption between day 0 and day 14 (histomonad field strain; [22]): 8.70 kg | Mean feed conversion between day 0 and day 14 (histomonad field strain; [22]): 1.88 | Mortality caused by histomoniasis (histomonad field strain; [22]): 5 | Mean feed consumption between day 0 and day 14 (histomonad field strain; [23]): 9.59 kg | Mean feed conversion between day 0 and day 14 (histomonad field strain; [23]): 1.91 | Mortality caused by histomoniasis (histomonad field strain; [23]): 4 | Mean feed consumption between day 0 and day 14 (histomonad field strain; [24]): 9.14 kg | Mean feed conversion between day 0 and day 14 (histomonad field strain; [24]): 2.33 | Mortality caused by histomoniasis (histomonad field strain; [24]): 4 | Mean feed consumption between day 0 and day 14 (histomonad field strain; [25]): 10.40 kg | Mean feed conversion between day 0 and day 14 (histomonad field strain; [25]): 1.83 | Mortality caused by histomoniasis (histomonad field strain; [25]): 2 | Mean feed consumption between day 0 and day 14 (histomonad field strain; [26]): 11.79 kg | Mean feed conversion between day 0 and day 14 (histomonad field strain; [26]): 1.55 | Mortality caused by histomoniasis (histomonad field strain; [26]): 0 | Average lesions in the appendix (histomonad field strain; [3]): 0.29 | Infection-related lesions in the liver (histomonad field strain; [3]): 0.29 | Average lesions in the appendix (histomonad field strain; [4]): 0.00 | Infection-related lesions in the liver (histomonad field strain; [4]): 0.00 | Average lesions in the appendix (histomonad field strain; [5]): 1.08 | Infection-related lesions in the liver (histomonad field strain; [5]): 0.58 | Average lesions in the appendix (histomonad field strain; [6]): 0.53 | Infection-related lesions in the liver (histomonad field strain; [6]): 0.27 | Average lesions in the appendix (histomonad field strain; [7]): 0.47 | Infection-related lesions in the liver (histomonad field strain; [7]): 0.13 | Average lesions in the appendix (histomonad field strain; [8]): 1.80 | Infection-related lesions in the liver (histomonad field strain; [8]): 0.73 | Average lesions in the appendix (histomonad field strain; [9]): 0.79 | Infection-related lesions in the liver (histomonad field strain; [9]): 0.07 | Average lesions in the appendix (histomonad field strain; [10]): 0.27 | Infection-related lesions in the liver (histomonad field strain; [10]): 0.00 | Average lesions in the appendix (histomonad field strain; [11]): 3.73 | Infection-related lesions in the liver (histomonad field strain; [11]): 2.53 | Average lesions in the appendix (histomonad field strain; [12]): 3.53 | Infection-related lesions in the liver (histomonad field strain; [12]): 2.53 | Average lesions in the appendix (histomonad field strain; [13]): 3.79 | Infection-related lesions in the liver (histomonad field strain; [13]): 2.00 | Average lesions in the appendix (histomonad field strain; [14]): 4.00 | Infection-related lesions in the liver (histomonad field strain; [14]): 1.80 | Average lesions in the appendix (histomonad field strain; [15]): 3.80 | Infection-related lesions in the liver (histomonad field strain; [15]): 1.33 | Average lesions in the appendix (histomonad field strain; [16]): 3.67 | Infection-related lesions in the liver (histomonad field strain; [16]): 1.33 | Average lesions in the appendix (histomonad field strain; [17]): 2.53 | Infection-related lesions in the liver (histomonad field strain; [17]): 0.40 | Average lesions in the appendix (histomonad field strain; [18]): 1.20 | Infection-related lesions in the liver (histomonad field strain; [18]): 0.00
